Each structure is given as a SMILES string. Converted amounts (≈) assume the structure as drawn.

The text below walks through data of PMC6010133, “Synthesis and biological evaluation of N-arylpiperazine derivatives of 4,4-dimethylisoquinoline-1,3(2H,4H)-dione as potential antiplatelet agents” (Journal of Enzyme Inhibition and Medicinal Chemistry, 2018).

Data set [1] has as its target alpha 1-ARs. The data set is described as follows: Radioligand binding assay, displacement of [3H]prazosin on rat cerebral cortex. The settings on record: read-out: Affinity for alpha 1-ARs Ki ± SD. How it is done:
The affinity of the obtained compounds was evaluated by radioligand binding assays (the ability to displace [3H] prazosin and [3H]clonidine from a1- and a2-AR, respectively) on rat cerebral cortex. The brains are homogenised in 20 volumes of an ice-cold 50 mM Tris–HCl buffer (pH 7.6) and is centrifuged at 20,000 g for 20 min (0–4 °C). The cell pellet is resus-pended in the Tris–HCl buffer and centrifuged again. Radioligand binding assays are performed in plates (MultiScreen/Millipore). The final incubation mixture (final volume 300 μL) consisted of 240 µl of the membrane suspension, 30 μL of [3H]prazosin (0.2 nM) or [3H]clonidine (2 nM) solution and 30 μL of the buffer containing seven to eight concentrations (1.0^−11 to 1.0^−4 M) of the tested compounds. For measuring the unspecific binding, phentolamine, 10 µM (in the case of [3H]prazosin) and clonidine, 10 μM (in the case of [3H]clonidine) are applied. The incubation is terminated by rapid filtration over glass fiber filters (Whatman GF/C) using a vacuum manifold (Millipore). The filters are then washed twice with the assay buffer and placed in scintillation vials with a liquid scintillation cocktail. Radioactivity was measured in a WALLAC 1409 DSA liquid scintillation counter. All the assays were performed in duplicate.
Subsequently, we determined the selectivity vs. alpha 1-adrenoreceptor (Table 4). The final compounds 3–11 were submitted to a radioligand binding assay, measuring the ability to displace [^3H] prazosin from alpha 1-ARs, in the rat cerebral cortex. […] On the other hand, the introduction of a hydrophobic group into meta position of the phenylpiperazine ring (3, 4, 5, 6) caused a relatively weaker decrease. […] The incorporation of a bulky substituents such as; 2,2-dimethylbenzo[d][1,3]dioxole (9), benzo[d]oxazol-2(3H)-one (10), 2H-benzo[b][1,4]oxazin-3(4H)-one (11) maintained the affinity for alpha1-ARs.
For orientation: Displacement assays read how much labelled ligand stays bound in the presence of the test substance.

In data set [2] the test system is whole rat blood aggregation induced by ADP and adrenaline. The experiment in a line: In vitro whole blood aggregation test induced by ADP and adrenaline (Multiplate). It is filed as cell-based. The settings on record: for IC50: whole rat blood, ADP and adrenaline 1.6 µM + 50 µM, read-out: B (ADP + A) IC50. The method, then:
(§1) In vitro aggregation tests were conducted using freshly collected whole blood with Multiplate platelet function analyzer (Roche Diagnostics Polska Sp. z o.o., Warsaw, Poland), the five-channel aggregometer based on measurements of electric impedance. The Multiplate analyzer allows the duplicate measurement with dual electrode probes. Blood was drawn from carotid of rats with hirudin blood tube (Roche Diagnostic). 300 μL of hirudin anticoagulated blood was mixed with 300 μL pre-warmed isotonic saline solution containing studied compound in DMSO or DMSO (0.1% final) and pre-incubated for 3 min at 37 °C with continuous stirring. The agonists (ADPtest, COLtest, Roche Diagnostic) were diluted using isotonic sterile NaCl solution. Aggregation was induced by adding collagen (final concentration 1.6 µg/mL), or adrenaline and subthreshod concentration of ADP (final concentration 50 µM + 1.6 µM). Activated platelet function was recorded for 6 min. The Multiplate software analyzed the area under the curve of the clotting process of each measurement and calculated the mean values.
(§2) Data were presented as Mean ± SEM. Statistical comparisons were made by the analysis of variance (ANOVA) and significance of the differences between control group and treated groups was determined by Dunnet post hoc test. p < .05 was considered significant.
(§3) Based on the aforementioned results, the most interesting compounds (3, 4, 9, and 10) were selected for further studies. In order to evaluate the anti-platelet effects of the new compounds in vitro, freshly isolated rat whole blood was incubated with selected compounds (3–100 μM) or vehicle (DMSO), and the aggregation responses were evaluated with multiplate whole blood aggregometer by measuring impedance change. Platelet aggregation was induced by collagen or sub-threshold concentration of ADP and adrenaline. ARC-239 was used as a reference compound.
Combining adrenaline with the sub-threshold concentration of ADP produced a maximal aggregation response. The adrenaline-mediated amplification of ADP-stimulated aggregation was attenuated when rat blood was pre-incubated with 3, 9, 10, and ARC-239.

The target in data set [3] is T1, alpha 2B-AR (Homo sapiens, UniProt P18089).
T1 sequence (P18089 1-450): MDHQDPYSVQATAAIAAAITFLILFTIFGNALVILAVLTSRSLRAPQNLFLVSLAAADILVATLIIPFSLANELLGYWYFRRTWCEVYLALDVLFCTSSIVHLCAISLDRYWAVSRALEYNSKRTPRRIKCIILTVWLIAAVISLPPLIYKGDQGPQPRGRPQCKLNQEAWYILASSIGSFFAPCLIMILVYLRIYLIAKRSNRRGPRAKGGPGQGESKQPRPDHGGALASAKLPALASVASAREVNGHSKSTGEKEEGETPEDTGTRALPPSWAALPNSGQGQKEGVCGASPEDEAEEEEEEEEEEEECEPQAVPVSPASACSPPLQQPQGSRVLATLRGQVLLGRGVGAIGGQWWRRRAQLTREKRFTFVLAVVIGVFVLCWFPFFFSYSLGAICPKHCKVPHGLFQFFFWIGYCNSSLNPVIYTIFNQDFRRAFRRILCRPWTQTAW
The experiment in a line: Intrinsic activity assay, antagonist mode, cells with stable expression of the α2B-adrenoceptor. It is filed as cell-based. The settings on record: antagonist potency, read-out: Antagonist mode (IC50 ± SEM). The method, then: An intrinsic activity assay was performed according to the instructions of the manufacturer of the assay kit containing ready-to-use cells with stable expression of the α2A-adrenoceptor (In-vitrogen, Life Technologies, Carlsbad, CA, USA) or α2B-adrenoceptor (PerkinElmer, Inc, Waltham, MA, USA).
Considering that a potent blockade of alpha 2B-ARs is required for the antiplatelet effect[8] ^, [9] we began an assessment of a pharmacological profile of all the synthesized molecules (3–11) with the evaluation of their alpha 2B-ARs antagonistic properties.

Data set [4] can be described thus: Metabolic stability (liver microsomes, human). It is filed as in vitro ADME. The method, then:
(§4) The in vitro bioavailability assays were performed by Eurofins Panlabs Inc. (St Charles, USA) according to the methods reported in publications listed below:
Microsomal stability: Obach, R.S et al. (1997) J Pharmacol Exp Ther, 283:[…][35].
(§5) Concerning the described above results, for the most promising compound 3, we performed early in vitro bioavailability assays, including aqueous solubility, human plasma protein binding, human liver microsomes stability, and Caco-2 permeability (Eurofins Bioavailability panel).

A short description of data set [5]: Aqueous solubility (Eurofins bioavailability panel). It is filed as physicochemical. The settings on record: kinetic from dmso stock. How it is done:
as §4
Solubility: Lipinski, C.A et al. (2001) Adv Drug Del Rev, 46:3–26[32],
as §5

Data set [6] relates to whole rat blood aggregation induced by collagen. The experiment in a line: In vitro whole blood aggregation test induced by collagen (Multiplate). It counts as cell-based. As to conditions: for anti-platelet efficacy at lower concentration: compound at 30 μM; for IC50: whole rat blood, collagen 1.6 µg/mL. How it is done: as §1, §2, §3
Data set [7] is described as follows: Protein binding (plasma, human). As to conditions: 1.0E-05 M. It counts as in vitro ADME. The method, then: as §4
Protein binding: Banker, M.J et al. (2003) J. Pharm. Sci., 92:967–974[33],
as §5

A short description of data set [8]: Caco-2 permeability. It counts as in vitro ADME. The settings on record: human; Caco-2, pH 6.5/7.4; 1.0E-05 M. How it is done:
as §4
Caco-2 permeability: Hidalgo, I.J et al. (1989) Gastroenterology, 96:736–749[34],
as §5
In general terms: Caco-2 cells form a polarised layer with tight junctions and transporters.

For `CC1(C)C(=O)N(CCN2CCN(c3cccc4[nH]c(=O)oc34)CC2)C(=O)c2ccccc21` [Compound 10, 4,4-Dimethyl-2–(2-(4–(2-oxo-2,3-dihydrobenzo[d]oxazol-7-yl)piperazin-1-yl)ethyl)isoquinoline-1,3(2H,4H)-dione], the Ki (in general, a dissociation constant, usually derived from enzyme kinetics or from competition with a known ligand) in data set [1] was found to be 10.3 ± 0.3 nM. Further, the IC50 (in general, the concentration that inhibits the measured activity by half) is 76.5 ± 5.8 µM in data set [2] and 61 ± 22.5 nM in data set [3].
For the molecule `CC1(C)C(=O)N(CCN2CCN(c3cccc4c3OCC(=O)N4)CC2)C(=O)c2ccccc21` [Compound 11, 4,4-Dimethyl-2–(2-(4–(3-oxo-3,4-dihydro-2H-benzo[b][1,4]oxazin-8-yl)piperazin-1-yl)ethyl)isoquinoline-1,3(2H,4H)-dione], in data set [1], the Ki worked out at 3 ± 0.1 nM. Also, the IC50 in data set [3] was > 1000 nM.
On to `CC1(C)C(=O)N(CCN2CCN(c3cccc(F)c3)CC2)C(=O)c2ccccc21` [Compound 3, 2–(2-(4–(3-Fluorophenyl)piperazin-1-yl)ethyl)-4,4-dimethylisoquinoline-1,3(2H,4H)-dione], for which the inhibitory constant (Ki) in data set [1] was 30 ± 1 nM. For the same molecule, the IC50 came to 20.5 ± 7.1 µM in data set [2], 61 ± 25.4 nM in data set [3] and 26.9 ± 18.8 µM in data set [6]. The half-life (usually how long it takes for the measured level to halve) at 100 nM in data set [4] (1.0E-07 M) was found to be 14.1 min. Besides, the microsomal CLint at 100 nM in data set [4] (1.0E-07 M, read-out: Intrinsic clearance) came to 14 µL/min/mg. Further, the “% Compound remaining” value in data set [4] (incubation time 0 minutes) came to 100.0%; in data set [4] (incubation time 15 minutes) it was 49%; in data set [4] (incubation time 30 minutes), 18%; in data set [4] (incubation time 45 minutes) it was 8%; in data set [4] (incubation time 60 minutes) it was 6%. In addition, the solubility (as a rule, the dissolved amount per volume that the medium holds) in data set [5] (PBS, pH 7.4, aqueous buffer) is 5.4 µM (≈ 2.14 µg/mL); in data set [5] (fassgf or other biorelevant, simulated intestinal fluid, test concentration 2.0E-04 M), 68 µM (≈ 26.9 µg/mL); in data set [5] (simulated gastric fluid), 151 µM (≈ 59.7 µg/mL). The “anti-platelet efficacy at lower concentration” value in data set [6] (collagen-induced) is reported as “significant anti-platelet efficacies”. In addition, the “% Protein bound” value in data set [7] was determined as 99%. Further, in data set [8], the Papp A→B (as a rule, how fast a substance crosses the layer from the apical side) at 10 µM amounted to 7.7 ×10⁻⁶ cm/s. The Papp B→A – broadly, the apparent permeability from the basolateral to the apical side of a cell layer – at 10 µM in data set [8] was 2.6 ×10⁻⁶ cm/s.
Consider `COc1ccccc1N1CCN(CCN2C(=O)c3ccccc3C(C)(C)C2=O)CC1` [ARC-239, reference compound], for which the Ki in data set [1] came out at 0.3 nM. For the same molecule, the IC50 in data set [2] is 63.9 ± 21.3 µM; in data set [3], 8.4 ± 3.2 nM; in data set [6] it was 20.7 ± 14.7 µM.
Consider `CC1(C)C(=O)N(CCN2CCN(c3cccc(O)c3)CC2)C(=O)c2ccccc21` [Compound 7, 2–(2-(4–(3-hydroxyphenyl)piperazin-1-yl)ethyl)-4,4-dimethylisoquinoline-1,3(2H,4H)-dione], for which the Ki in data set [1] was 81.7 ± 5.5 nM. For the same molecule, in data set [3], the IC50 came to 758 ± 160 nM.
For `CC1(C)C(=O)N(CCN2CCN(c3cccc(Cl)c3)CC2)C(=O)c2ccccc21` [Compound 4, 2–(2-(4–(3-Chlorophenyl)piperazin-1-yl)ethyl)-4,4-dimethylisoquinoline-1,3(2H,4H)-dione], the Ki in data set [1] was 93 ± 2 nM. For the same molecule, the “inhibition against ADP and adrenaline induced blood aggregation” value in data set [2] (up to 100 μM) is “did not exhibit any significant inhibition”. For the same molecule, the IC50 in data set [3] was determined as 251 ± 71 nM; in data set [6], 34.5 ± 2.5 µM. Besides, the “anti-platelet efficacy at lower concentration” value in data set [6] (collagen-induced) is given as “significant anti-platelet efficacies”.
For the molecule `CC1(C)C(=O)N(CCN2CCN(c3cccc(C(F)(F)F)c3)CC2)C(=O)c2ccccc21` [Compound 5, 4,4-Dimethyl-2–(2-(4–(3-(trifluoromethyl)phenyl)piperazin-1-yl)ethyl)isoquinoline-1,3(2H,4H)-dione], the Ki in data set [1] was 703 ± 1 nM. The IC50 in data set [3] was > 1000 nM.
Regarding `CC1(C)Oc2cccc(N3CCN(CCN4C(=O)c5ccccc5C(C)(C)C4=O)CC3)c2O1` [Compound 9, 2–(2-(4–(2,2-Dimethylbenzo[d][1,3]dioxol-4-yl)piperazin-1-yl)ethyl)-4,4-dimethylisoquinoline-1,3(2H,4H)-dione], the Ki in data set [1] is 30 ± 0.2 nM. The IC50 in data set [2] was 54.4 ± 5.4 µM; in data set [3], 47 ± 12.8 nM; in data set [6] it was 27.4 ± 5.3 µM. The “anti-platelet efficacy at lower concentration” value in data set [6] (collagen-induced) is reported as “significant anti-platelet efficacies”. In addition, the “platelet aggregation attenuated to” value in data set [6] (collagen-induced, compound at 100 μM) was 59.3%.
`COc1cccc(N2CCN(CCN3C(=O)c4ccccc4C(C)(C)C3=O)CC2)c1` [Compound 6, 2–(2-(4–(3-Methoxyphenyl)piperazin-1-yl)ethyl)-4,4-dimethylisoquinoline-1,3(2H,4H)-dione]: the Ki in data set [1] is 78.4 ± 3.8 nM. In addition, in data set [3], the IC50 was > 1000 nM.
The matching figures for `CC1(C)C(=O)N(CCN2CCN(c3ncccn3)CC2)C(=O)c2ccccc21` [Compound 8, 4,4-Dimethyl-2–(2-(4-(pyrimidin-2-yl)piperazin-1-yl)ethyl)isoquinoline-1,3(2H,4H)-dione]: 1500 ± 100 nM and > 1000 nM.
